Measurements: patent EP4420661B1, “SMALL MOLECULES TARGETING GLYCOPROTEIN VI AS ANTIPLATELET AGENTS FOR USE IN THE PREVENTION AND/OR TREATMENT OF THROMBOSIS AND ASSOCIATED PATHOLOGIES” (Universidade de Santiago de Compostela, priority 2023, dated 2024)
Values after ≈ are worked out from the molar mass of the structure shown.

Key:
[1] = plasmatic stability, human plasma; format: in vitro ADME; conditions: for Plasmatic stability: Human plasma
Procedure: (§1) Rat, human, mouse and dog plasma pooled from healthy donors extracted in citrate tubes was employed in the assay.
(§2) […] Then 300µl Acetonitrile were added for precipitating plasma protein, and the plate was centrifuged at 4000 g for 60 min at 4°C.
(§3) Supernatant was taken and analyzed by UPLC/MS/MS for sample quantification. Stationary phase: Reverse phase ACQUITY BEH C18 1.7µm 2.1x50mm (Waters) Mobile phase: 0.1% Formic acid water/0.1% formic acid in acetonitrile Gradient: Table 4: UPLC gradient / Plasmatic stability assay
(§4) The chromatographic equipment employed was an UPLC QSM Waters Acquity. Compound concentrations were calculated from the MS peak areas.

[2] = plasmatic stability, mouse plasma; format: in vitro ADME; set-up: unit not given beside the values
Procedure: as §1, §2, §3, §4

[3] = plasmatic stability, dog plasma; format: in vitro ADME
Procedure: as §1, §2, §3, §4

[4] = metabolic stability, rat microsomes; format: in vitro ADME; conditions: Rat microsomes
Procedure: (§5) Microsomes from Tebu-bio Xenotech were employed in the assay, having a content of 20 mg/ml of protein. The following quantities were added to each well of a 96-well microplate. Table 6: Metabolic stability assay.
(§6) Plates were incubated at 37°C and 75 µL samples were taken at 0, 10, 20, 40 and 60 minutes.
(§7) Samples were transferred to a microplate and 75 µl Acetonitrile + IS(Rolipram) were added for inactivating the microsomes, and 30 µl of H2O with 0.5% formic acid for improving the chromatographic conditions and kept at 4°C. When all the samples were taken the plate was centrifuged at […] for 30 min at 15°C. Stationary phase: ACQUITY BEH C18 1.7µm 2.1x50mm (Waters) Mobile phase: A: 0.1% formic; B: acetonitrile+0.1% formic acid Gradient: Table 6: UPLC gradient / Metabolic stability assay
(§8) Metabolic stability was calculated from the logarithm of the remaining compound at each of the times evaluated.

[5] = metabolic stability, mouse microsomes; format: in vitro ADME
Procedure: Samples were transferred to a microplate and 75 µl Acetonitrile + IS(Rolipram) were added for inactivating the microsomes, and 30 µl of H2O with 0.5% formic acid for improving the chromatographic conditions and kept at 4°C. When all the samples were taken the plate was centrifuged at 46000 g for 30 min at 15°C. Stationary phase: ACQUITY BEH C18 1.7µm 2.1x50mm (Waters) Mobile phase: A: 0.1% formic; B: acetonitrile+0.1% formic acid Gradient: Table 6: UPLC gradient / Metabolic stability assay

[6] = metabolic stability, human microsomes; format: in vitro ADME
Procedure: as §5, §6, §7, §8

[7] = plasma protein binding, Rapid Equilibrium Dialysis (RED), human; format: in vitro ADME; conditions: 4h at 37°C
Procedure: (§9) Plasma from Seralab was employed in the assay and was carried out by employing Rapid Equilibrium Dialysis (RED) from Thermo Scientific.
(§10) The compounds were dissolved at 5 µM in plasma and added to the corresponding insert of the RED device. Dialysis buffer was added to the corresponding insert of the RED device. Plate was incubated for 4h at 37°C.
(§11) After the incubation period 50 µL aliquots of each chamber were transferred to empty vials. 50 µL of dialysis buffer were added to the plasma samples and 50 µL of plasma were added to the buffer samples. 300 µL of acetonitrile were added to all the samples and centrifuged at 4000 rpm 100 µL aliquots of the supernatants were transferred to a LC analysis plate. Samples were analyzed in a UPLC/MS/MS. Stationary phase: Acquity UPLC® BEHC18 1,7 µm (2.1 mm x 50 mm) (Waters). Gradient: A (H2O + 0.1% Formic acid); B (ACN + 0.1% Formic acid); Flow: 0.6mL/min Table 8: UPLC gradient / Protein binding assay
(§12) The chromatographic equipment employed was an ACQUITY UPLC / Xevo TQD System. Compound concentrations were calculated from the MS peak areas. Table 9: Plasma protein binding of the compounds of formula (I) in rat, mice, dogs and humans / (*) low recovery

[8] = system: Plasma protein; test: as above; format: in vitro ADME; conditions: 5 µM, 4h at 37°C
Procedure: as §9, §10, §11, §12

[9] = plasma protein binding, Rapid Equilibrium Dialysis (RED), dog; format: in vitro ADME; conditions: 4h at 37°C
Procedure: as §9, §10, §11, §12

[10] = system: Plasma protein; test: as above; format: in vitro ADME; conditions: 5 µM, 4h at 37°C
Procedure: as §9, §10, §11, §12

[11] = molecular target: T1, CYP2C9 (Homo sapiens, UniProt P11712); test: CYP inhibition, liver microsomes, substrate cocktail; format: in vitro ADME
T1 construct: 0.5 mg protein/mL of liver microsomes (HLM Xenotech); tissue Xenotech; host or cells: liver microsomes
Procedure: Cytochrome P450 (CYP) are a family of enzymes which play a major role in the metabolism of drugs. Assessment of the potential of a compound to inhibit a specific cytochrome P450 enzyme is important as co-administration of compounds may result in one or both inhibiting the other's metabolism.
All the incubations were performed in 250 µL reaction medium containing sodium/potassium phosphate buffer 50mM, pH 7.4, 3mM MgCl2, an NADPH regeneration system 1mM NADP, 10mM glucose 6-phosphate, and 1 U/mL glucose 6-phosphate dehydrogenase, 0.5 mg protein/mL of liver microsomes (HLM Xenotech), and a substrate cocktail composed of phenacetin for CYP1A2, diclofenac for CYP2C9, S-mephenytoin for CYP2C19, bufuralol for CYP2D6, midazolam for CYP3A4, and testosterone for CYP3A4. Final concentrations of substrate in the reaction medium were: 10 µM phenacetin, 10 µM diclofenac, 5 µM bufuralol, 100µM S-Mephenytoin, 5 µM midazolam, and 50 µM testosterone. Following incubation at 37°C for 25 min, the reactions were terminated by the addition of ice-cold acetonitrile and the plate was centrifuged at 4000 g for 60 min at 4°C.
Supernatant was taken and analyzed by UPLC/MS/MS for sample quantification The chromatographic equipment employed was an UPLC QSM Waters Acquity. Stationary phase: Reverse phase Acquity UPLC® BEHC18 1,7 µm (2.1 mm x 100 mm) (Waters) Mobile phase: 0.1% Formic acid water/0.1% formic acid in acetonitrile. Flow: 0.8 ml/min. Gradient: Table 10: UPLC gradient / CYP inhibition assay

[12] = solubility by nephelometry; conditions: 1% dmso/pbs, 37 °C, aqueous buffer, kinetic from dmso stock
Procedure: Solubility was determined by nephelometry to assess its potential impact on the bioassays at active concentrations.
Then, said compounds were incubated for 2 hours at 37°C and read in a NEPHELOstar Plus (BMG LABTECH).

T1 sequence (P11712 whole entry): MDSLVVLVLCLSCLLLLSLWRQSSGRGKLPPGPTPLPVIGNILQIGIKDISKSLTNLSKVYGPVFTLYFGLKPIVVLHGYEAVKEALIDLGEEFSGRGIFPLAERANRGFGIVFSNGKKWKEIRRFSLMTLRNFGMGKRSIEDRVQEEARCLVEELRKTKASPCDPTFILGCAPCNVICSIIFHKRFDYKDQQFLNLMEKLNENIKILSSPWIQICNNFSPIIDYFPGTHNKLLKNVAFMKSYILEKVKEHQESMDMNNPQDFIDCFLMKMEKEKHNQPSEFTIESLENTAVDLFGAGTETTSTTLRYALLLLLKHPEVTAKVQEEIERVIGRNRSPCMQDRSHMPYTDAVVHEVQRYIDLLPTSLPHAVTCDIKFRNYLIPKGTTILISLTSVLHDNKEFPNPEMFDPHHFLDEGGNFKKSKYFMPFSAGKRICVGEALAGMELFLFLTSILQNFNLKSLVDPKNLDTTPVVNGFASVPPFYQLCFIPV

O=C(Cc1ccc2c(c1)OCCO2)Nc1nc(-c2ccc3c(c2)CCC(=O)N3)cs1 [Compound (If)]
Plasmatic stability ([1]; 10µM, t 0 min): 100.0 | Plasmatic stability ([1]; 10µM, t 60 min): 101.0 | Plasmatic stability ([1]; 10µM, t 120 min): 101.7 | Plasmatic stability ([1]; 10µM, t 360 min): 101.4 | Plasmatic stability ([1]; 100µM, t 0 min): 100.0 | Plasmatic stability ([1]; 100µM, t 60 min): 104.3 | Plasmatic stability ([1]; 100µM, t 120 min): 107.4 | Plasmatic stability ([1]; 100µM, t 360 min): 106.4 | plasmatic stability (in words) ([1]; human): high plasmatic stability | Plasmatic stability ([2]; 10µM, t 0 min): 100.0 | Plasmatic stability ([2]; 10µM, t 60 min): 67.8 | Plasmatic stability ([2]; 10µM, t 120 min): 41.6 | Plasmatic stability ([2]; 10µM, t 360 min): 5.6 | Plasmatic stability ([2]; 100µM, t 0 min): 100.0 | Plasmatic stability ([2]; 100µM, t 60 min): 77.6 | Plasmatic stability ([2]; 100µM, t 120 min): 57.5 | Plasmatic stability ([2]; 100µM, t 360 min): 9.6 | Plasmatic stability ([3]; 10µM, t 0 min): 100.0 | Plasmatic stability ([3]; 10µM, t 60 min): 89.2 | Plasmatic stability ([3]; 10µM, t 120 min): 85.1 | Plasmatic stability ([3]; 10µM, t 360 min): 83.5 | Plasmatic stability ([3]; 100µM, t 0 min): 100.0 | Plasmatic stability ([3]; 100µM, t 60 min): 101.4 | Plasmatic stability ([3]; 100µM, t 120 min): 106.5 | Plasmatic stability ([3]; 100µM, t 360 min): 102.4 | half-life [4]: 1.03 h | microsomal CLint [4]: 8.89 µL/min/mg | % remanent (*) ([4]; (*) sampling time 60 min): 49.9% | half-life [5]: 1.82 h | microsomal CLint [5]: 7.09 µL/min/mg | % remanent (*) ([5]; (*) sampling time 60 min): 71.6% | half-life [6]: 0.781 h | microsomal CLint [6]: 10.1 µL/min/mg | % remanent (*) ([6]; (*) sampling time 60 min): 41.21% | fraction unbound at 4 h, 5 µM [7]: 0.0011 | Unbound fraction [8]: 0.11% | fraction unbound at 4 h, 5 µM [9]: 0.0015 | Unbound fraction [10]: 0.15% | IC50 ([11]; CYP2C9, substrate diclofenac): > 10 µM | inhibition at 25 min, 10 µM ([11]; human, liver microsomes, pH 7.4, CYP2C9, 10µM, substrate diclofenac): -0.7% | solubility at 2 h [12]: 61.5 µM (≈ 25.9 µg/mL)
